The values that follow come from US5686606A, “UCF116 compounds” (Kyowa Hakko Kogyo, Co., Ltd., priority 1994, dated 1997).

Values after ≈ are worked out from the molar mass of the structure shown. Where two headings read alike, the source gives them in different places.

Data set [1] relates to Candida albicans ATCC 10231. Kind of data set: Antibacterial activity (MIC), agar dilution method. The class given is cell-based. As to the method:
(§1) The antibacterial activity was determined by the agar dilution method using a medium (pH 7) which comprises 3 g/l Bacto-tryptone (Difco Laboratories),3 g/l meat extract, 1 g/f yeast extract, 1 g/l glucose and 16 g/l agar.

Data set [2] deals with Enterococcus faecium ATCC 10541. Kind of data set: Antibacterial activity (MIC), agar dilution method. The format is cell-based. As to the method:
as §1

For data set [3], the system named is Staphylococcus aureus ATCC 6538P. Briefly: Antibacterial activity (MIC), agar dilution method. The format is cell-based. The settings on record: ATCC6538P, pH 7. As to the method: as §1
Data set [4] concerns HR-3Y1 cells. Kind of data set: Growth inhibition against HR-3Y1 cells. The settings on record: 72 hours, 37° C., Giemsa staining. The class given is cell-based. As to the method:
An HR-3Y1 cell suspension (3.0×10^4 cells/ml) prepared by suspending HR-3Y1 cells in a medium comprising MEM medium (Nissui Pharmaceutical Co., Ltd.) and 10% fetal calf serum (hereinafter referred to as Medium A) was put into wells of a 96-well microtiter plate in an amount of 0.1 ml per well. After the cells in the plate were cultivated at 37° C. for 20 hours in a CO2 -incubator, a test compound appropriately diluted with Medium A was added to the wells in an amount of 0.1 ml per well. The cells were further cultivated at 37° C. for 72 hours in the CO2 -incubator. After the cultivation supernatant was removed, the residue was washed once with physiological saline and then treated with 0.1 ml of methanol for 10 minutes to fix the cells. The cells were stained with 0.1 ml of Giemsa's staining solution [Giemsa's staining solution, Merck Art 9204 (Merck & Co., Inc.): physiological saline=1:10] for 5 minutes. After the staining solution was removed, the residue was washed once with 0.2 ml of water. Then, the dye was extracted with 0.2 ml of 0.1 N hydrochloric acid and the absorbance was measured at 620 nm with a microplate reader.
The concentration of the test compound at which the growth of the cells is inhibited by 50% (IC50) was calculated by comparing the absorbance of untreated cells with those of the cells treated with the test compound at known concentrations.

Data set [5] in a line: Solubility. The class given is physicochemical.
The test system of data set [6] is BALB 3T3/H-ras cells. Briefly: Growth inhibition against BALB 3T3/H-ras cells. The class given is cell-based. The settings on record: Mus musculus, 72 hours, 37° C., Giemsa staining. As to the method:
A BALB 3T3/H-ras cell suspension (3.0×10^4 cells/ml) prepared by suspending BALB 3T3/H-ras cells ([…]) in a medium comprising MEM medium (Nissui Pharmaceutical Co., Ltd.) and 10% fetal calf serum (hereinafter referred to as Medium A) was put into wells of a 96-well microtiter plate in an amount of 0.1 ml per well. After the cells in the plate were cultivated at 37° C. for 20 hours in a CO2 -incubator, a test compound appropriately diluted with Medium A was added to the wells in an amount of 0.1 ml per well. The cells were further cultivated at 37° C. for 72 hours in the CO2 -incubator. After the cultivation supernatant was removed, the residue was washed once with physiological saline and then treated with 0.1 ml of methanol for 10 minutes to fix the cells. The cells were stained with 0.1 ml of Giemsa's staining solution [Giemsa's staining solution, Merck Art 9204 (Merck & Co., Inc.): physiological saline=1:10] for 5 minutes. After the staining solution was removed, the residue was washed once with 0.2 ml of water. Then, the dye was extracted with 0.2 ml of 0.1 N hydrochloric acid and the absorbance was measured at 620 nm with a microplate reader. […]

Data set [7] relates to isogenic tumor in K-BALB mice. Briefly: Antitumor activity against isogenic tumor system in K-BALB mice. The class given is in vivo. Conditions: 10.0 mg/kg, intraperitoneal, 5 consecutive days from 7th day after s.c. transplantation, BALB/c mouse. The procedure: The antitumor activity against an isogenic tumor system in K-BALB mice was measured according to the method described in Proc. Natl. Acad. Sci., 90, 2281 (1993). That is, an isogenic tumor in K-BALB mice was resected from a donor mouse, and a 2×2×2 mm (8 mm^3) tumor piece was subcutaneously transplanted into a BALB/c mouse at the ventral side using a trocar. After the graft survival was confirmed on the 7th day after the transplantation, a test compound was intraperitoneally administered for 5 consecutive days from the same day. The longer diameter and the shorter diameter of the tumor were measured with slide calipers, and the tumor volume was calculated according to the formula: (longer diameter)×(shorter diameter)^2 /2 [Cancer Chemother. Rep., Part III, 3, 1 (1972)]. The antitumor effect was evaluated in terms of T/C, the ratio of the tumor volume of a test compound-treated group (T) to that of an untreated group (C).

Where [8] appears, read: ATCC10231, Candida albicans ATCC 10231, agar dilution, pH 7, read-out: MIC.
[9] abbreviates: ATCC10541, Enterococcus faecium ATCC 10541, agar dilution, pH 7, read-out: MIC.
Where [10] appears, read: Staphylococcus aureus ATCC 6538P, agar dilution, read-out: MIC.

For the compound `CO[C@H]1/C=C/C=C/C=C/C[C@H](OC(=O)C2(NC(=O)C3CCCCC3)CC2)[C@H](C)[C@@H](O)/C(C)=C\CCC2=CC(=O)C=C(NC(=O)C1)C2=O` [UCF116-A3], the values for the MIC in data set [1] (setting [8]), in data set [2] (setting [9]) and in data set [3] (setting [10]) were 41.7 µg/mL (≈ 64.3 µM), 83.3 µg/mL (≈ 128 µM) and 41.7 µg/mL (≈ 64.3 µM), respectively. For the same compound, in data set [4], the IC50 amounted to 950 nM. In data set [5], the “Solubility in DMSO, chloroform, acetone and ethyl acetate” value (shortened to “Solubility in DMSO, chloroform”) is given as “Soluble”. The “Solubility in water and hexane” value in data set [5] was “insoluble”.
Consider `C/C=C(\C)C(=O)N[C@H](C)C(=O)O[C@H]1C/C=C/C=C/C=C/[C@H](OC)CC(=O)Nc2cc(O)cc(c2O)CC/C=C(/C)[C@H](O)[C@H]1C` [UCF116-D], for which the MIC turned out to be 83.3 µg/mL (≈ 136 µM) in data set [1] (Candida albicans, ATCC10231, pH 7); 83.3 µg/mL (≈ 136 µM) in data set [2] (Enterococcus faecium, ATCC10541, pH 7); 83.3 µg/mL (≈ 136 µM) in data set [3] (Staphylococcus aureus). In data set [6], this compound showed an IC50 of 660 nM. The “Solubility in DMSO, chloroform” value in data set [5] is reported as “Soluble”. Also, the “Solubility in water and hexane” value in data set [5] is recorded as “insoluble”.
As to `CO[C@H]1/C=C/C=C/C=C/C[C@H](OC(=O)[C@@H](C)NC(=O)C2=CCCCC2)[C@H](C)[C@@H](O)/C(C)=C\CCc2cc(O)cc(c2O)NC(=O)C1` [UCF116-B], the MIC in data set [1] (setting [8]) came out at 20.8 µg/mL (≈ 32.7 µM); in data set [2] (setting [9]), 41.7 µg/mL (≈ 65.5 µM); in data set [3] (setting [10]), 41.7 µg/mL (≈ 65.5 µM). Also, the IC50 turned out to be 390 nM in data set [6] and 350 nM in data set [4]. For the same compound, the “T/C (ratio of tumor volume of treated group to untreated group)” value in data set [7] is reported as 0.25. The “Solubility in DMSO, chloroform” value in data set [5] is recorded as “Soluble”. Also, in data set [5], the “Solubility in water and hexane” value is on record as “insoluble”.
